Molecular target: T1, PPARα (Mus musculus, UniProt P23204)
T1 construct: expressed in transfected cells; host or cells: liver of chow- or ZFD-fed WT mice on a PPARα null background, infected with AdFLAG-PPARα adenovirus
T1 sequence (P23204 1-468): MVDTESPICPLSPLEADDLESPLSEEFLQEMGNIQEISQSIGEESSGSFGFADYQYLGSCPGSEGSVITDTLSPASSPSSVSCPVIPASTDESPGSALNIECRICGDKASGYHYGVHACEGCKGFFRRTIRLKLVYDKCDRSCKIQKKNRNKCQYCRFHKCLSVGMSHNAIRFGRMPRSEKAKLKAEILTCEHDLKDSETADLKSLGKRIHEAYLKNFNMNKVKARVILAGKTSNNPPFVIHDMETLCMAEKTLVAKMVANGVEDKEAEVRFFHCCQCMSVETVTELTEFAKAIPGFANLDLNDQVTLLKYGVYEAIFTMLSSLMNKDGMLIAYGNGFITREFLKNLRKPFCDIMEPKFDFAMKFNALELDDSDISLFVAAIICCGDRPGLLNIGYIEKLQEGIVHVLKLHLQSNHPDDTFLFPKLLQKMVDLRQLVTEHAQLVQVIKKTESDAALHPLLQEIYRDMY
Assay: In vivo competitive inhibition: displacement of 16:0/18:1-GPC (m/z 766) from FLAG-tagged PPARα, ESI/MS
Settings: 50 μg/g intraperitoneal; chow and zero fat diet fed WT mice on PPARα null background with AdFLAG-PPARα; 0-60 min
Description: Freshly harvested livers (˜100 mg) were gently homogenized in ice-cold non-detergent hypotonic buffer (10 mM HEPES, pH 7.9, 1.5 mM MgCl2, 10 mM KCl, 100 mM DTT, protease and phosphatase inhibitor cocktail). After an additional 10 min incubation in the hypotonic buffer, the homogenate was centrifuged at 8000×g at 4° C. for 20 min. The pellet was homogenized in ice-cold extraction buffer (10 mM HEPES, pH 7.9, 1.5 mM MgCl2, 0.21 M NaCl, 0.2 mM EDTA, 25% (v/v) glycerol, 100 mM DTT, protease and phosphatase inhibitor cocktail), placed on a rotating shaker at 4° C. for 1 h, then centrifuged at 18,000×g for 10 min. […]
The in vivo displacement of the endogenous PPARα ligand 16:0/18:1-GPC by the PPARα agonist Wy14,643 was assessed by electrospray ionization mass spectrometry (ESI/MS) Analysis. […] Wy14,643 in chow fed WT mice on a PPARα null background injected with AdFLAG-PPARα adenovirus are shown in FIGS. 4A-D. Similarly, representative ESI/MS scans of GPC species at different time intervals following an intraperitoneal injection of 50 μg/g Wy14,643 in ZFD fed mice are shown in FIGS. 4E-H. Insets in FIGS. 4A-H depict the ion at m/z 766 (16:0/18:1-GPC) that is time-dependently competed away with Wy14,643 while quantification of the relative abundance of the peak abundance of m/z 766 ion in response to Wy14,643 is shown in FIG. 4I. […]

displacement of 16:0/18:1-GPC (m/z 766) from PPARα: displaced from PPARα within minutes
SMILES: Cc1cccc(Nc2cc(Cl)nc(SCC(=O)O)n2)c1C [Wy14,643, 4-Chloro-6-(2,3-xylidino)-2-pyrimidinylthioacetic acid]

Source: patent US8337835B2, “Use of an endogenous ligand for peroxisome proliferator activated receptor alpha to treat liver disorders” (priority 2009, dated 2012)
